Assay [1] concerns C. albicans. Put plainly: In vivo G. mellonella model, C. albicans infection (survival, fungal burden). The arrangement: species or system Galleria mellonella. Particulars: C. albicans-infected G. mellonella, 1×MIC. How it is done: The in vivo antifungal activity of MMs was assessed in G. mellonella (Li et al., 2013; (Slater et al., 2011). G. mellonella were acquired from a commercial supplier (rainbowmealworms.net) in their final instar larval stage. Worms of similar size (~0.3 g), responsive to touch, and displaying no signs of melanization were selected. C. albicans (~10^5 CFU mL^−1) and A. fumigatus conidia (~104 conidia mL^−1) suspensions were prepared in PBS as previously described. The fungal inoculum (5 μL) was injected into the last left proleg of the worms with a Hamilton syringe. Thirty minutes after infection, MM and/or antifungal agents (1×MIC, Table 2) diluted in sterile water were injected similarly to the right proleg. […] After 30 min, worms in the irradiated treatment groups were transferred to 24-well plates (Corning-Costar Corp., Corning, NY, USA) and irradiated with 405-nm light (87.6 J cm^−2). Worms were incubated in sterile Petri dishes at 30 ° C in the dark. Live and dead worms were scored each day for 7 days. Melanized or unresponsive worms were considered dead.
Fungal load was assessed in a separate group of similarly treated worms 48 h after infection. Only healthy larvae (four worms per treatment group) with no melanization spots were used. […] After 48 h at 30 ° C (C. albicans) or 7 days at 28 ° C (A. fumigatus), colonies were counted to determine CFU per mg of larvae.

The nature of assay [2]: Singlet oxygen generation (DPBF). Particulars: irradiated. From the text: Percentage of DCFH-DA-(FIG. 45E) and APF-(FIG. 45F) positive cells, as detected using flow cytometry. UV-VIS spectra of the singlet oxygen trap DPBF in the presence of the fast antibacterial motor MM 1 (FIG. 45G) or the inert slow motor ARV 3-202 (FIG. 45H). (FIG. 451) Rate of decrease of the absorption of DPBF at 410 nm, indicative of singlet oxygen generation, in the presence of MM 1 or its slow analog ARV 3-202. […] Flow cytometry data (at least 10 000 cells) was acquired in a spectral analyzer (Sony SA3800) and analyzed using FlowJo software. Results are shown as the mean of at least 3 biological replicas±standard error of the mean. Comparisons between samples were performed in GraphPad Prism 8 using a Kruskal-Wallis test for comparison between three or more samples or an unpaired t-test for comparisons between two samples. * p<0.05. not significant=n.s.

Assay [3] relates to mature C. albicans biofilms. The assay can be described thus: Biofilm viability (XTT assay). It is filed as cell-based, Candida albicans. Particulars: 2×, 4×MIC, vs DMSO, MMs with 87.6 J cm^−2 405-nm light. The method, then:
The antibiofilm activity of MMs was investigated using 96-well microtiter plates with flat-bottom wells as a closed static biofilm reactor. This setup is reliable, inexpensive, easy to use and obtain, and requires no additional equipment (Pierce et al., 2010). Two parameters were used to evaluate antibiofilm activity: biofilm biomass and biofilm viability. Biofilm biomass was determined using the crystal violet method (Martins et al, 2010), a simple, inexpensive, and readily accessible method for determining biofilm biomass. However, because crystal violet binds both live and dead cells as well as extracellular polymeric substances, it cannot be used alone to reliably assess antibiofilm activity. To overcome this limitation, the XTT assay was used to evaluate biofilm viability (Nett et al., 2011). […] The resulting formazan can be easily detected by measuring the absorbance at 490 nm, which is proportional to the number of living cells, providing a reliable quantitative measurement of metabolically active cells in biofilms (Taff et al., 2012). […]
Biofilm viability was determined using an XTT cell viability assay kit (Biotium, Hayward, CA, USA) per the manufacturer's instructions. […] Normalized absorbance values were obtained by subtracting the background from the signal.

For assay [4], the system named is C. albicans. The assay can be described thus: Checkerboard interaction with conventional antifungals (FICI), C. albicans. Format: cell-based, Candida albicans. The conditions noted are these: for FICI: 405-nm light. How it is done: A modified checkerboard assay was used to study the interaction of visible-light-activated MMs with conventional antifungals in C. albicans. […] The type of interaction between MMs and conventional antifungals was assessed by calculating the fractional inhibitory concentration index (FICI), with a FICI of ≤0.5, 0.5<x≤4, or >4, denoting synergistic, additive, or antagonistic interactions, respectively (Odds, 2003).
The interaction of MMs with conventional antifungal agents in C. albicans was investigated by determining the MIC of different antifungals alone and after treatment with visible-light-activated MMs using a modified broth microdilution checkerboard assay (Cantón et al., 2005) in an 8×8-well configuration. […] The fractional inhibitory concentration index (FICI) was determined as the sum of the MIC of the MM and the antifungal drug when used in combination divided by their MIC when used alone. An FICI index of ≤0.5, 0.5<x≤4, or >4 indicates synergistic, additive, and antagonistic interactions, respectively (Odds, 2003).

Regarding `C[C@@H]1Cc2ccc3ccccc3c2/C1=C1\c2ccccc2Sc2cc(NCCN(C)C)ccc21` [MM 1, N^1N^1-dimethyl-N^2-(9-(2-methyl-2,3-dihydro-1H-cyclopenta[a]naphthalen-1-ylidene)-9H-thioxanthen-3-yl) ethane-1,2-diamine], the “time by which all worms died” value in the assay on C. albicans [1] is reported as at most 3 days. Moreover, the singlet oxygen generation result in assay [2] is reported as “lower than that of its slow, inert counterpart”. In addition, the “reduction of biofilm viability” value in assay [3] is given as “up to 96%”. Moreover, the “type of interaction with conventional antifungals” value in the assay with C. albicans [4] is reported as “synergized with all antifungals tested”. For the same molecule, the FICI in the assay on C. albicans [4] (MM 1 + ciclopirox) is reported as 0.093; in the assay on C. albicans [4] (MM 1 + fluconazole) it was 0.500; with C. albicans [4] (MM 1 + voriconazole), 0.500.

These data come from US20260355318A1, “MOLECULAR MACHINES FOR TREATMENT OF CANCER, FUNGAL INFECTIONS, OR BACTERIAL INFECTIONS” (priority 2022, published 2026).
